Laboratory results as given in paper PMC4122355, “Inhibitor of the Tyrosine Phosphatase STEP Reverses Cognitive Deficits in a Mouse Model of Alzheimer's Disease” (PLoS Biology, 2014).
Where two headings read alike, the source gives them in different places.

How the values were obtained:
[1] = tested on: GluN2B (Y1472), Pyk2 (Y402), ERK1/2 (Y204/187) in cortical neurons; assay: Tyr phosphorylation of STEP substrates in cortical neuronal cultures (Western blot); format: cell-based, rat; conditions: 1 µM dose, 1 h, relative to vehicle
Experimental: (§1) Primary cortical neurons were isolated from Sprague Dawley rat embryos (E18) (Charles River Laboratories, Wilmington, MA) as previously described. In some experiments, cortical neurons were made from WT and STEP KO mouse embryos (E18). Neurons were allowed to grow for 18–21 d in CO2 incubator before addition of compounds at indicated doses for 1 h. Immediately following treatments, neurons were lysed in RadioImmuno Precipitation Assay (RIPA) buffer supplied with protease inhibitor cocktail (Roche Applied Science, Indianapolis, IN) and phosphatase inhibitors (NaF and Na3VO4). All experiments were replicated four times with four independent batches of cultures.
(§2) Samples were prepared and resolved by SDS-PAGE, transferred to nitrocellulose membrane, and incubated with phospho-specific antibodies (anti-pY^204/187 ERK1/2, anti-pY^402 Pyk2, anti-pY^1472 GluN2B) or total protein antibodies (anti-ERK2, anti-Pyk2, and anti-NR2B) overnight at 4°C. Immunoreactivity was visualized using a Chemiluminescent substrate kit (Pierce Biotechnology, Rockford, IL) and detected using a G:BOX with the image program GeneSnap (Syngene, Cambridge, UK). All densitometric quantifications were performed using the Genetools program.

[2] = tested on: GluN2B (Y1472), Pyk2 (Y402), ERK1/2 (Y204/187) in cortex; assay: Tyr phosphorylation of STEP substrates in cortex of WT mice after i.p. injection; format: in vivo, mouse; conditions: C57BL/6 mice, 1 mg/kg i.p., 3 h postinjection, relative to vehicle
Experimental: Wild-type, male C57BL/6 mice (3–6 mo) were used for all studies. […] Cortical tissues were dissected out 3 h postinjection and processed for subcellular fractionation. […] Homogenates were centrifuged at 800 × g to remove nuclei and large debris (P1). Synaptosomal fractions (P2) were prepared from S1 by centrifugation at 9,200 × g for 15 min. The P2 pellet was washed twice and was resuspended in TEVP buffer. […] Samples were prepared and resolved by SDS-PAGE, transferred to nitrocellulose membrane, and incubated with phospho-specific antibodies (anti-pY^204/187 ERK1/2, anti-pY^402 Pyk2, anti-pY^1472 GluN2B) or total protein antibodies (anti-ERK2, anti-Pyk2, and anti-NR2B) overnight at 4°C. Immunoreactivity was visualized using a Chemiluminescent substrate kit (Pierce Biotechnology, Rockford, IL) and detected using a G:BOX with the image program GeneSnap (Syngene, Cambridge, UK). All densitometric quantifications were performed using the Genetools program.

[3] = cited from earlier work
[4] = tested on: GluN2B Y1472, Pyk2 Y402, ERK1/2 Y204/187 in WT and STEP KO cortical neurons; assay: Tyr phosphorylation of STEP substrates in WT and STEP KO mouse cortical cultures; format: cell-based; conditions: STEP KO cultures, 1 h; TC-2153 0.1 and 1 µM, Na3VO4 1 mM
Experimental: as §1, §2

## S1SSSSSSS1 [Compound S8, sulfur (S8)]
[1]
  pERK1/2 (Y204/187), phospho-signal normalized to total protein and GAPDH: 1.67±0.14
  pGluN2B (Y1472), phospho-signal normalized to total protein and GAPDH: 1.33±0.08
  pPyk2 (Y402), phospho-signal normalized to total protein and GAPDH: 1.49±0.12
[2]
  pERK1/2 in cortex (P2 fraction): 1.57±0.13
  pGluN2B in cortex (P2 fraction): 1.31±0.11
  pPyk2 in cortex (P2 fraction): 1.46±0.14
[3]; stated without reference
  Solubility in aqueous solution: poorly soluble

## [Na+].[Na+].[Na+].[O]=[V]([O-])([O-])[O-] [sodium orthovanadate, reference compound]
[4]
  Tyr phosphorylation of STEP substrates in STEP KO cortical cultures: further increased the Tyr phosphorylation of these substrates

## COc1cc(CCN)c2c(c1OC)SSSSS2 [varacin, reference compound]
[3]
  Solubility in aqueous solution: reasonable solubility in aqueous solution
